Laboratory results published in article PMC9079729, “Conservation of the conformational dynamics and ligand binding within M49 enzyme family” (RSC Advances, 2018).
Residues, ends and D or L forms follow the SMILES beside them.

Target: T1, yDPP III (Saccharomyces cerevisiae, UniProt Q08225)
T1 construct: His6 (C); made in house; host or cells: E. coli
T1 sequence (Q08225 1-711): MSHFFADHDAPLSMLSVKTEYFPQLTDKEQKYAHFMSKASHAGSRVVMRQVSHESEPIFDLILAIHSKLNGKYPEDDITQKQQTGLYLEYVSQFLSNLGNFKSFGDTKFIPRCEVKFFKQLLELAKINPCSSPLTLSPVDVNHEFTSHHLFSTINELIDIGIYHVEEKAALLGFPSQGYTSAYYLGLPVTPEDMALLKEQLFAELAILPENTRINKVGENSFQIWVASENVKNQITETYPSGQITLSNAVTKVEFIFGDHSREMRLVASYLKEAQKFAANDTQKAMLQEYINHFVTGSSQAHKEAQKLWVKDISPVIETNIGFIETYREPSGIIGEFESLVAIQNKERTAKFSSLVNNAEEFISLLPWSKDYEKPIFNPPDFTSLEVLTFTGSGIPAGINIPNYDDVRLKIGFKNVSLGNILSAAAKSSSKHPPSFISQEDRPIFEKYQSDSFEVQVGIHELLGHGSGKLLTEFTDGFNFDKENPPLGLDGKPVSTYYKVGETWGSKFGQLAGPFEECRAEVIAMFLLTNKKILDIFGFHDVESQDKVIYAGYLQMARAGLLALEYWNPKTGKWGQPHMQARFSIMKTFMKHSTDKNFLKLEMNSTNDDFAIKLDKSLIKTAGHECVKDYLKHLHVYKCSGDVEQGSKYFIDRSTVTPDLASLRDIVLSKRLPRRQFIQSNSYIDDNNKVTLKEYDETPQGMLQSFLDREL
Test: Differential HDX-MS, unliganded vs. tynorphin complex
Format: binding, yeast (Saccharomyces cerevisiae)
Settings: yDPP III peptide p42 (407-422)
Experimental: In the first step of the HDX analysis, optimization of digestion conditions and establishing a list of peptic peptides for all DPP III orthologues was carried out. With non-deuterated sample, a 5 μL aliquot of protein stock (between 35–50 μM in 20 mM Tris, pH 7.4) was diluted 10 times by adding 45 μL of 20 mM Tris, pH 7.4 (H2O reaction buffer). Next, the sample was acidified by mixing with 10 μL of 2 M glycine buffer, pH 2.5 (H2O stop buffer). The sample was subjected to online pepsin digestion using a 2.1 mm × 30 mm immobilized pepsin resin column (Porozyme, ABI, Foster City, CA) with 200 μL min^−1 flow of 0.07% formic acid in water as a mobile phase. Digested peptides were passed directly to the 2.1 mm × 5 mm C18 trapping column (Acquity BEH C18 VanGuard precolumn, 1.7 μm resin, Waters, Milford, MA). […]
Separate hydrogen deuterium exchange experiments were carried out for six unliganded DPP III enzymes, human V412I mutant, and their tynorphin complexes. […] The reaction buffer was prepared using D2O (99.8% Armar Chemicals, Switzerland), in which the pH (uncorrected meter reading) was adjusted using DCl or NaOD (Sigma). […] Relative deuterium uptake values are calculated without correction for back exchange. […]

## CC(C)[C@H](N)C(=O)N[C@H](C(=O)N[C@@H](Cc1ccc(O)cc1)C(=O)N1CCC[C@H]1C(=O)N[C@@H](Cc1c[nH]c2ccccc12)C(=O)O)C(C)C [tynorphin] (H-VVYPW-OH)
  deuterium incorporation decrease, fast exchanging conformation: less than 1%
  deuterium incorporation decrease, slow exchanging conformation: more than 22%
